Like-named read-outs stand apart in the source and are kept apart here.
What was measured:
HUVEC = assay: Wound healing migration assay; assay type: cell-based, human; conditions: 24 hours
Source text: Cell migration is essential for ECs in angiogenesis and for cancer cells in tumor growth and metastasis. […] Cell invasion is essential for EC in angiogenesis, so we performed transwell assays to evaluate the ability of HUVEC to pass through the Matrigel and membrane barriers of the transwell in the presence of various concentrations of YLT192 or vehicle.
Figure 2 Effects of YLT192 on HUVECs proliferation, migration, invasion and tube formation. […] Cells were wounded by the pipette and then treated with various concentrations of compounds for 24 hours. Migrated cells were quantified by manual counting (50×). […] The bottom chambers of the transwells were filled with 600 μL EGM2 containing various growth factors while the top chambers were seeded with 4 × 10^4 HUVECs in EBM2 and treated with different concentrations of compounds for 24 hours. Cells invaded through the membrane were stained and quantified (100×). […] HUVECs were seeded on Matrigel layer and treated with different concentrations of compounds. HUVECs tube formation was assessed 6 hours later (50×). One representative experiment of three is shown. For (A), (B) and (C), data represent the mean ± SEM of three different experiments. Each experiment was performed in duplicate.*P < 0.05, **P < 0.01. (D) YLT192 inhibited VEGF-induced phosphorylation of VEGFR2 and its downstream signal regulator p44/42 MAPK, STAT3 and AKT in HUVECs. One representative Western blot of three is presented. Each has the expression of β-actin as internal control. The full size blots were shown in the Supplemental Figure S5 online. (E) Cellular thermal shift assay showing VEGFR2 target engagement by YLT192 in intact HUVECs. One representative Western blot of two is presented. The full size blots were shown in the Supplemental Figure S6 online. […]
HUVECs were allowed to grow into full confluence in 24-well plates and then wounded by scratching with pipette tips and washed with PBS. […] Images were taken using a ZEISS digital microscope and invading cells were counted by manual counting. […]

tumor cells = assay: Cancer cell viability assays, whole panel; assay type: cell-based
HCT116 cells = assay: EdU incorporation assay; assay type: cell-based, human; conditions: 24 h treatment, concentration-dependent
Method: (§1) The proliferative inhibitory ability of YLT192 on tumor cells was investigated. […] Inhibition of cell proliferation is a possible approach for cancer treatment. EdU incorporation assay was performed to investigate the anti-proliferative effects of YLT192 against U251 and HCT116 cells.
(§2) Figure 4 Inhibitory effects of YLT192 on tumor cells. (A) YLT192 inhibited U251 and HCT116 cells proliferation. The EdU incorporation assay was conducted on U251 and HCT116 cells after treated with YLT192 for 24 hours. The EdU-positive (red fluorescent staining) cells and Hoechst staining (blue fluorescent staining) cells represented proliferating and total cells in the fluorescent images, respectively (100×). Quantification was shown on the right panels. (B) YLT192 induced apoptosis of HCT116 cells. HCT116 cells were treated with YLT192 or vehicle for 48 hours followed by flow cytometric analysis of annexin V-FITC and PI staining. The proportion of early apoptotic cells (annexin V positive) and late apoptotic cells (annexin V and PI positive cells) were shown. Typical apoptosis-related proteins caspase 3 and Bax were detected by western blot. Each has the expression of β-actin as internal control. […] U251 and HCT116 cells were treated with YLT192 or vehicle for 48 hours and the expression of protein in different signaling pathways were detected by western blot with specific antibodies. […]

U251 cells = assay: EdU incorporation assay; assay type: cell-based, human; conditions: 24 h treatment, concentration-dependent
Method: as §1, §2

[1] = mouse, in vivo
Method: All the HCT116 model mice were sacrificed after 24 days of treatment.
During the treatment of human colorectal carcinoma HCT116 xenograft on nude mice, they were also observed every day to investigate the side effects and toxicities after YLT192's longer time administration. Finally, serum biochemistry, hematological analysis, organ coefficients and histological examinations of heart, liver, spleen, lung, and kidney were carried out after dissection. Serum chemistry and hematological analysis was carried out.
in normal tissues. After the treatment of HCT116 xenograft, heart, liver, spleen, lung
and kidney of the mice were isolated and stained with H&E (n=6 mice per group).
Scale bars represent 50μm.
(1 picture or pasted object on this page, not shown here)

SMILES: CNC(=O)c1cc(Oc2ccc(NC(=O)c3cccc(OC)c3)cc2)ccn1 [YLT192]
- migration of HUVEC (HUVEC; 2.5 μM, wound healing): strongly inhibited
- HUVECs migration in wound healing assay (HUVEC; various concentrations): inhibited HUVECs migration
- IC50 (tumor cells; range for most tumor cell lines of the panel, read-out: Most IC50 against the tumor cells): 6 to 20 µM
- IC50 (tumor cells; range over the cancer cell panel, read-out: IC50 values in cancer cell viability assays): 6 to 30 µM
- percentage of proliferating cells, EdU incorporation (HCT116 cells): decreased a lot
- percentage of proliferating cells, EdU incorporation (U251 cells): decreased a lot
- adverse effects, such as diarrhea or toxic death [1]: did not observed adverse effects
- microscopic examination of the heart, liver, spleen, lung, and kidney [1]: no pathological changes
